# Measured values taken from patent US20230192623A1, “Indazole Derivatives” (Hoffmann-La Roche Inc., priority 2020, published 2023).
# Molecular target: T1, human cGAS (residues 161-522) (Homo sapiens, UniProt Q8N884)
# T1 construct: Recombinantly expressed purified human cGAS (residues 161-522) was used at 25nM; made in house
# Test: Malachite Green assay to measure cGAS activity (coupled enzymatic assay, phosphate detection)
# Format: biochemical
# Conditions: recombinant purified human cGAS 25 nM; 80 μM ATP, 80 μM GTP, 100 nM ISD; 4 hour at RT; absorbance 620 nm
# Protocol: Malachite Green Assay to Measure cGAS Activity
# Compounds were tested for cGAS inhibition in a coupled enzymatic assay based on Phosphate detection by Malachite Green. Final assay conditions were 20 mM TRIS pH 7.5 (Applichem), 5 mM MgCl2 (Sigma) and 0.01% BSA (Sigma) supplemented with 80 μM ATP (Sigma), 80 μM GTP (Sigma) and 100 nM Interferon Stimulating DNA (ISD) (Microsynth). Recombinantly expressed purified human cGAS (residues 161-522) was used at 25nM.
# All compounds were prepared as 10 mM stock solutions in DMSO and a 16 pt dilution series in DMSO with a dilution factor of 2.5 was prepared. 1 μL of DMSO dilution series was transferred to 32.3 μL reaction buffer, mixed by pipetting up/down, spun for 1 minute at 3000 rpm and was visually inspected for precipitation. 5 μL of 3-fold enzyme stock solution were transferred to an empty 384-well Black/Clear Flat Bottom Polystyrene NBS (Corning) rows 3-24. Rows 1-2 were filled with assay buffer. Plates were spun 10 seconds at 1000 rpm (164×g). 5 μL of compound intermediate dilution was added and mixed by pipetting up/down to rows 3-24. Rows 1-2 were filled with 3.1% DMSO assay buffer. Plates were spun 10 seconds at 1000 rpm (164×g). 5 μL 3-fold Nucleotide/DNA mix was added to all wells to start the reaction. Plates were spun 10 seconds at 1000 rpm (164×g) and incubated for 4 hour at room temperature (RT) in the dark. 5 μL 4U/mL PPase (Sigma) were added to all wells. Plates spun 10 seconds at 1000 rpm (164×g). 10 μL BioMol green Solution (Enzo Life Sciences) was added to all wells. Plates spun 10 seconds at 1000 rpm (164×g) and incubated 30 minutes at RT in the dark. Absorbance data was collected 620 nm on an EnVision Multilable Reader (Perkin Elmer) and the following measurement settings were used: excitation filter photometric was 620 nm; excitation from the top; measurement height was 1 mm; number of flashes was 30; number of flashes integrated was 1.
# All plates are checked for abnormalities and outliers in the Blank Control (no protein, row 1) and the Neutral Control (no compound, row 2) are excluded using the 3*SD rule. Data was normalized to 0 and 100% by Blank and Neutral Control and each curve was fitted and judged using the 4 parameter logistic equation to determine the IC50 for cGAS inhibition.
# Table 1 provides IC50 values (μM) for cGAS inhibition obtained for particular examples of the present invention as measured by the above-described assay.
# T1 sequence (Q8N884 161-522): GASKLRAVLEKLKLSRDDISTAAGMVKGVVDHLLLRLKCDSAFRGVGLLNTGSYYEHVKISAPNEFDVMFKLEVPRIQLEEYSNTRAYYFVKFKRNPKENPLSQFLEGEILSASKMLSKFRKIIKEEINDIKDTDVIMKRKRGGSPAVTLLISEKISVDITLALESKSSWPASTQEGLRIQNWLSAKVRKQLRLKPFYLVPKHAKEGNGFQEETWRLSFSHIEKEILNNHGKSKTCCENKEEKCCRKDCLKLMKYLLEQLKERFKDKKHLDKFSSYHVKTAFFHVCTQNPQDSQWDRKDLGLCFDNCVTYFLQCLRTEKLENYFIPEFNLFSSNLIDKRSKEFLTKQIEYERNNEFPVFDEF
row,IC50,Compound
1,4590 nM,"Cc1cc(Cl)c(-c2cc(C(=O)O)c3cn[nH]c3c2)cc1F [Example 12, 6-(2-Chloro-5-fluoro-4-methylphenyl)-1H-indazole-4-carboxylic acid]"
2,2930 nM,"Cc1ccc(-c2cc(C(=O)O)c3cn(Cc4cccnc4)nc3c2)c(Cl)c1 [Example 6, 6-(2-Chloro-4-methylphenyl)-2-(pyridin-3-ylmethyl)indazole-4-carboxylic acid]"
3,2740 nM,"Cc1ccc(-c2cc(C(=O)O)c3cn(Cc4nc(C)c(C)o4)nc3c2)c(Cl)c1 [Example 8, 6-(2-Chloro-4-methylphenyl)-2-((4,5-dimethyloxazol-2-yl)methyl)indazole-4-carboxylic acid]"
4,2760 nM,"Cc1ccc(-c2cc(C(=O)O)c3cn(Cc4ccc(Cl)cc4)nc3c2)c(Cl)c1 [Example 4, 6-(2-Chloro-4-methylphenyl)-2-[(4-chlorophenyl)methyl]indazole-4-carboxylic acid]"
5,4460 nM,"Cc1ccc(-c2cc(C(=O)O)c3cn[nH]c3c2)c(Cl)c1 [Example 13, 6-(2-Chloro-4-methylphenyl)-1H-indazole-4-carboxylic acid]"
6,2400 nM,"Cc1ccc(-c2cc(C(=O)O)c3cn(Cc4ccccn4)nc3c2)c(Cl)c1 [Example 7, 6-(2-Chloro-4-methylphenyl)-2-(pyridin-2-ylmethyl)indazole-4-carboxylic acid]"
7,1370 nM,"Cc1ccc(-c2cc(C(=O)O)c3cn(Cc4ccccc4)nc3c2)c(Cl)c1 [Example 10, 2-Benzyl-6-(2-chloro-4-methylphenyl)-2H--indazole-4-carboxylic acid]"
8,2200 nM,"Cc1ccc(-c2cc(C(=O)O)c3cn(Cc4ccccc4Cl)nc3c2)c(Cl)c1 [Example 2, 6-(2-Chloro-4-methylphenyl)-2-[(2-chlorophenyl)methyl]indazole-4-carboxylic acid]"
9,1920 nM,"Cc1ccc(-c2cc(C(=O)O)c3cn(CCN4CCN(C)CC4)nc3c2)c(Cl)c1 [Example 1, 6-(2-Chloro-4-methylphenyl)-2-(2-(4-methylpiperazin-1-yl)ethyl)indazole-4-carboxylic acid]"
10,3180 nM,"Cc1ccc(-c2cc(C(=O)O)c3cn(Cc4cccc(Cl)c4)nc3c2)c(Cl)c1 [Example 3, 6-(2-Chloro-4-methylphenyl)-2-[(3-chlorophenyl)methyl]indazole-4-carboxylic acid]"
11,2350 nM,"Cc1ccc(-c2cc(C(=O)O)c3cn(CCc4ccccc4)nc3c2)c(Cl)c1 [Example 11, 6-(2-Chloro-4-methylphenyl)-2-phenethyl-2H-indazole-4-carboxylic acid]"
12,1560 nM,"Cc1ccc(-c2cc(C(=O)O)c3cn(CC(F)(F)F)nc3c2)c(Cl)c1 [Example 9, 6-(2-Chloro-4-methylphenyl)-2-(2,2,2-trifluoroethyl)-2H-indazole-4-carboxylic acid]"
13,2210 nM,"Cc1ccc(-c2cc(C(=O)O)c3cn(Cc4nc(C5CC5)no4)nc3c2)c(Cl)c1 [Example 5, 6-(2-Chloro-4-methylphenyl)-2-((3-cyclopropyl-1,2,4-oxadiazol-5-yl)methyl)indazole-4-carboxylic acid]"
